Measurements reported in ChEMBL document CHEMBL1201862, “PubChem BioAssay data set” (2004).
Calls of active or inactive are those of the source.

Key:
[1] = test system: Streptococcus; assay: Group A Streptococcus viability loss, dose response, counter-screen for streptokinase expression inhibitor project, luminescence, BacTiterGlo (AID 1915); assay type: functional, organism-based;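 note: potency for reduction of bacterial viability or growth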
[2] = test system: HEK293; assay: cells; assay type: functional, cell-based; conditions: Homo sapiens
[3] = test system: HEK293; assay: cells; conditions: Homo sapiens
[4] = target: T1, Nucleotide-binding oligomerization domain-containing protein 2 (Homo sapiens, UniProt Q9HC29); assay: PubChem AID 2334; assay type: functional
[5] = test system: HEK293; assay: cells; assay type: functional, cell-based; conditions: Homo sapiens; remark: listed apart in the source
[6] = test system: HEK293; assay: NOD1 signaling inhibitors, primary screen, cell-based, luminescence, uHTS (AID 1578); assay type: functional; conditions: Homo sapiens
[7] = test system: Streptococcus sp. 'group A'; assay: growth inhibition of control SK(-) GAS strain, dose response, counter-screen for streptokinase expression inhibitor project, luminescence, kanamycin, BacTiterGlo, confirmation (AID 1900); assay type: functional, organism-based
[8] = target: Tumor necrosis factor (Homo sapiens, UniProt P01375); assay: TNFa-triggered NF-kB activation inhibitors, SAR follow-up, cell-based, revised (AID 2337); assay type: functional
[9] = test system: HEK293; assay: NOD2 signaling inhibitors in MDP-stimulated cells, cell-based, uHTS, luminescence (AID 2001); assay type: functional; conditions: Homo sapiens
[10] = target: T2, Nucleotide-binding oligomerization domain-containing protein 1 (Homo sapiens, UniProt Q9Y239); assay: NOD1 signaling inhibitors, SAR follow-up, revised (AID 2333); assay type: functional
T2 sequence (Q9Y239 whole entry): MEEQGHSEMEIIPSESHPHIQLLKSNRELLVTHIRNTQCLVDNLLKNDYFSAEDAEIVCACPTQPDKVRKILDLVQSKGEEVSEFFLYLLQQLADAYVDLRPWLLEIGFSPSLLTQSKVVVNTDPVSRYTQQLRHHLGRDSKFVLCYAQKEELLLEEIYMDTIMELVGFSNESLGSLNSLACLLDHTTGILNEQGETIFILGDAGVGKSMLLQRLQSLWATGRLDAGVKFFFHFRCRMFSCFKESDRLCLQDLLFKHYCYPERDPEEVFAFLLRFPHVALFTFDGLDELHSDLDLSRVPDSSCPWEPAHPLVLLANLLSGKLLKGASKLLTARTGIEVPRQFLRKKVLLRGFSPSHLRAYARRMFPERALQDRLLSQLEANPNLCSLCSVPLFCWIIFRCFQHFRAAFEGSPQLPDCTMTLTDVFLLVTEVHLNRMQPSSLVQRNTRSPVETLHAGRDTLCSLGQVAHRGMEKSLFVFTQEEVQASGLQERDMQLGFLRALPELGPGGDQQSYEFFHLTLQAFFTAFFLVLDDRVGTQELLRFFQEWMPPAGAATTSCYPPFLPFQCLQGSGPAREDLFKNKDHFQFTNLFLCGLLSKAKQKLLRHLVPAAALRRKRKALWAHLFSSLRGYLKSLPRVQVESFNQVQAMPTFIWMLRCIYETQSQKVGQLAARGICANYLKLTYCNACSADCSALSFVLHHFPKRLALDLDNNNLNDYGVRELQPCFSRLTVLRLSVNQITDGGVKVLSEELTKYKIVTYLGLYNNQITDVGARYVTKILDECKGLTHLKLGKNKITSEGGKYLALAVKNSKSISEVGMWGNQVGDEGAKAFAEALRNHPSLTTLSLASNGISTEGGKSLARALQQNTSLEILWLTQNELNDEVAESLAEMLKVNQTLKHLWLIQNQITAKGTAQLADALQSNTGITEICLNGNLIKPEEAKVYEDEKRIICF

[11] = test system: HEK293; assay: cells; assay type: functional, cell-based; conditions: Homo sapiens; remark: listed apart in the source
[12] = target: T1, Nucleotide-binding oligomerization domain-containing protein 2; assay: NOD2 signaling inhibitors, cell-based, luminescence, uHTS, HEK293 (AID 1566); assay type: functional
[13] = target: Neuropeptide Y receptor type 1 (Homo sapiens, UniProt P25929); assay: Fluorescence-based dose response cell-based high-throughput screening assay for agonists of NPY-Y1. [Related pubchem assays: 1697 (Screening assay (NPY-Y1 agonists).), 1359 (Screening assay (NPY-Y2 potentiators or agonists).), 1304 (Screening assay (NPY-Y1 potentiators or agonists).), 1704 (Screening assay (CNGC inhibitors).), 1791 (Summary AID.)]; assay type: functional
[14] = target: Neuropeptide Y receptor type 2 (Homo sapiens, UniProt P49146); assay: Fluorescence-based counterscreen for agonists of NPY-Y1: cell-based high-throughput dose response assay for agonists of NPY-Y2.; assay type: functional
[15] = test system: HEK293; assay: Fluorescence-based counterscreen for potentiators or agonists of NPY-Y1: cell-based high-throughput dose response assay for inhibitors of cyclic nucleotide gated ion channel (CNGC) activity. In this assay, the parental HEK293 cell line transfected with a cyclic-nucleotide gated ion channel (CNGC)-based cAMP sensor is used to measure inhibition of isoproterenol-induced CNGC …; assay type: functional; conditions: Homo sapiens
[16] = target: Transitional endoplasmic reticulum ATPase (Homo sapiens, UniProt P55072); assay: p97 ATPase inhibitors, dose response, biochemical (AID 1534)
[17] = target: Transitional endoplasmic reticulum ATPase (Homo sapiens, UniProt P55072, C522A); assay: C522A mutant p97 ATPase inhibitors, dose response, counter-screen for p97 inhibitor project, biochemical, luminescence (AID 1544)
[18] = target: Eukaryotic translation initiation factor 4E (Mus musculus, UniProt P63073); assay: eIF4E–eIF4G protein interaction inhibitors, dose response, biochemical, TR-FRET (AID 855); assay type: functional;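 note: potency for disrupting eIF4E binding to eIF4GI seen as loss of FRET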
[19] = target: T3, Heat shock factor protein 1 (Mus musculus, UniProt P38532); assay: HSF1 potentiators in luciferase reporter cells, confirmation, cell-based, NIH3T3, luminescence, dose retest (AID 435004); assay type: functional;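 note: stress induced by proteasome inhibitor MG132 added 30 min after compound; luciferase reporter driven by HSF1 response element in NIH3T3 cells; actives raise luminescence as potentiators of the MG132 stress response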
T3 sequence (P38532 whole entry): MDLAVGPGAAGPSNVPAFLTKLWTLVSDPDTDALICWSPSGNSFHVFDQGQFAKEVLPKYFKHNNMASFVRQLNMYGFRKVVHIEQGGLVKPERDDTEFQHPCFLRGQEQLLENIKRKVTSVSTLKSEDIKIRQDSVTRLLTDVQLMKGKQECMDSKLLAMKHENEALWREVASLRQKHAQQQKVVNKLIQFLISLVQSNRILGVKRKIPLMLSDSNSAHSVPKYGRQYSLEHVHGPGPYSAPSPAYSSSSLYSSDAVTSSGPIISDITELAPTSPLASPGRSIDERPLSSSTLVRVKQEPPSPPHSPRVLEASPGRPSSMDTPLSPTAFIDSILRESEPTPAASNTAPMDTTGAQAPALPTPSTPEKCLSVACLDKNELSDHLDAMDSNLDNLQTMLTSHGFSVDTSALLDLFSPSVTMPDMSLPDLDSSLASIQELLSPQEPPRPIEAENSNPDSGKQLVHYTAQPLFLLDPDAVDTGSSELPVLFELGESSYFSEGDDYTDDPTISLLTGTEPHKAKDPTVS

[20] = target: T4, SUMO-activating enzyme (Homo sapiens, UniProt Q9UBT2); assay: inhibitors of in vitro SUMOylation cascade, primary screen, biochemical, HTRF, uHTS (AID 2006); assay type: protein-complex assay
[21] = target: T4, SUMO-activating enzyme; assay: SUMOylation inhibitor hit validation, confirmation, SUMOylation inhibitor project, biochemical, AlphaScreen (AID 2018); assay type: functional
[22] = Luminescence Cell-Based Dose Confirmation HTS to Identify Inhibitors of Platelet Dense Granule Release. [Related pubchem assays: 1663 (Primary HTS), 1678 (Summary of Project)]; assay type: functional
[23] = test system: HeLa; assay: HeLa cell cytotoxicity, dose response, cytotoxicity control, 24 h, cherry-picked samples (AID 504726); assay type: functional, cell-based; conditions: Homo sapiens;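 note: potency for cytotoxicity as loss of luminescence signal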
[24] = Fluorescence Cell-Based Dose Response to Identify Inhibitors of Thrombin Receptor-Activating Peptide SFLLRN-Mediated P-Selectin Induction on Platelets. [Related pubchem assays: 1663 (Primary HTS), 1889 (retest at dose ), 1891 (counterscreen), 1678 (Project Summary)]; assay type: functional

T1 sequence (Q9HC29 whole entry, the tested form may be a part): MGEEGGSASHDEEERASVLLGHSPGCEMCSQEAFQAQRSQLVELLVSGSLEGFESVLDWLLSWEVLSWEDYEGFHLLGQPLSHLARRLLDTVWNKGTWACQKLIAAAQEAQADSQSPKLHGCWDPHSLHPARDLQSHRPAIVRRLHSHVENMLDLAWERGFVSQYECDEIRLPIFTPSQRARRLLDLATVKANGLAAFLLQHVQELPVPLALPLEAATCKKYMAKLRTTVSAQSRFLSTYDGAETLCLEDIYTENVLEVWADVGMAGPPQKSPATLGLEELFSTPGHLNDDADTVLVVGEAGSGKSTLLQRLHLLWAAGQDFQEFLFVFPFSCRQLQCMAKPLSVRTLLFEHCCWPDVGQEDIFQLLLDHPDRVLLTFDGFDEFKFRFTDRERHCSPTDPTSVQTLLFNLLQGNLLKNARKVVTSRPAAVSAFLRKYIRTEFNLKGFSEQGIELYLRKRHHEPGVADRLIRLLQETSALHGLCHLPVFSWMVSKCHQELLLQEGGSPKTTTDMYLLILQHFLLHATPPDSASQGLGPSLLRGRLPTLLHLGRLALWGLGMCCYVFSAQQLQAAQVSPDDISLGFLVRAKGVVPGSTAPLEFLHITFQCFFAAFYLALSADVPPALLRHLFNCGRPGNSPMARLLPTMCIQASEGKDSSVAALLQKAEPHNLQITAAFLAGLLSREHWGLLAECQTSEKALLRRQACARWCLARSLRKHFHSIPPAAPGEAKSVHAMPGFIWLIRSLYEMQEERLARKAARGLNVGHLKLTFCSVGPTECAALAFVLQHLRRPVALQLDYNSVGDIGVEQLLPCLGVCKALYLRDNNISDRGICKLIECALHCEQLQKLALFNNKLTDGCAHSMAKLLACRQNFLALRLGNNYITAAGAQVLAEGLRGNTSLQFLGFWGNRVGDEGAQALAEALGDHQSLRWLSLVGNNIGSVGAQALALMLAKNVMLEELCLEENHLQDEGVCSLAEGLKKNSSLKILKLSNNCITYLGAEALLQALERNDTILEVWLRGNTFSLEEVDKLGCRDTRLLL
T4 sequence (Q9UBE0 whole entry): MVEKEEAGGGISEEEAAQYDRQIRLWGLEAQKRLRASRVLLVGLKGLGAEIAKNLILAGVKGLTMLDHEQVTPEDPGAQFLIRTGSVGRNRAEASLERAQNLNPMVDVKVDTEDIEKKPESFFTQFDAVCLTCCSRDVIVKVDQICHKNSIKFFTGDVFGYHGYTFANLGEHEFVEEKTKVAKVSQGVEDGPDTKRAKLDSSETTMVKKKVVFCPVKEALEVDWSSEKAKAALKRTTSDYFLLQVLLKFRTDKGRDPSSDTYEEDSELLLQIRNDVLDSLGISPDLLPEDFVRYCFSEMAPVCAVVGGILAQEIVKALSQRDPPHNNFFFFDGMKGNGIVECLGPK
T4 sequence (Q9UBT2 whole entry): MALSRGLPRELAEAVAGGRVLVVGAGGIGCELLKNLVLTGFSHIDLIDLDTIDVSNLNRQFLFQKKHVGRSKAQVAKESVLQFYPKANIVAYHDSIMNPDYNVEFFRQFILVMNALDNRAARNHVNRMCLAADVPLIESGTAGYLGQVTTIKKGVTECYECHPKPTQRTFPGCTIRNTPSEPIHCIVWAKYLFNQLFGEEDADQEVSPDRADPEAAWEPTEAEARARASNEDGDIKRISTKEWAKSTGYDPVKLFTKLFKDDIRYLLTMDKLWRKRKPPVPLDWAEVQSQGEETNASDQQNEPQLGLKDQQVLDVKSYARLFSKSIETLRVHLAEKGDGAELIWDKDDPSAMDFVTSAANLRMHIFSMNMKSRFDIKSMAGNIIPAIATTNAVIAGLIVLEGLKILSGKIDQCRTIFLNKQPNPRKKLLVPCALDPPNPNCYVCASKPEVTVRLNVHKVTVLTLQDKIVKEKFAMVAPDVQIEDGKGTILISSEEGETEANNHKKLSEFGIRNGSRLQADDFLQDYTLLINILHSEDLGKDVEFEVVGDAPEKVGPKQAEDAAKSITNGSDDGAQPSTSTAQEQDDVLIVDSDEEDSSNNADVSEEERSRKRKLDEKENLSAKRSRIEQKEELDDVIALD
Sequence of Eukaryotic translation initiation factor 4E (P63073 whole entry): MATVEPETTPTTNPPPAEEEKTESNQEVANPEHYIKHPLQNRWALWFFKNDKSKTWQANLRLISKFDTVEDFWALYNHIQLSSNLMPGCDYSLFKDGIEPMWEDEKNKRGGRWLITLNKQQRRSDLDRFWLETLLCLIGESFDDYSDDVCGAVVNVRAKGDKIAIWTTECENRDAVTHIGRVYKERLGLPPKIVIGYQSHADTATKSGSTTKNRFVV
Sequence of Transitional endoplasmic reticulum ATPase (Homo sapiens, UniProt P55072, C522A) (P55072 2-806 C522A limits assumed): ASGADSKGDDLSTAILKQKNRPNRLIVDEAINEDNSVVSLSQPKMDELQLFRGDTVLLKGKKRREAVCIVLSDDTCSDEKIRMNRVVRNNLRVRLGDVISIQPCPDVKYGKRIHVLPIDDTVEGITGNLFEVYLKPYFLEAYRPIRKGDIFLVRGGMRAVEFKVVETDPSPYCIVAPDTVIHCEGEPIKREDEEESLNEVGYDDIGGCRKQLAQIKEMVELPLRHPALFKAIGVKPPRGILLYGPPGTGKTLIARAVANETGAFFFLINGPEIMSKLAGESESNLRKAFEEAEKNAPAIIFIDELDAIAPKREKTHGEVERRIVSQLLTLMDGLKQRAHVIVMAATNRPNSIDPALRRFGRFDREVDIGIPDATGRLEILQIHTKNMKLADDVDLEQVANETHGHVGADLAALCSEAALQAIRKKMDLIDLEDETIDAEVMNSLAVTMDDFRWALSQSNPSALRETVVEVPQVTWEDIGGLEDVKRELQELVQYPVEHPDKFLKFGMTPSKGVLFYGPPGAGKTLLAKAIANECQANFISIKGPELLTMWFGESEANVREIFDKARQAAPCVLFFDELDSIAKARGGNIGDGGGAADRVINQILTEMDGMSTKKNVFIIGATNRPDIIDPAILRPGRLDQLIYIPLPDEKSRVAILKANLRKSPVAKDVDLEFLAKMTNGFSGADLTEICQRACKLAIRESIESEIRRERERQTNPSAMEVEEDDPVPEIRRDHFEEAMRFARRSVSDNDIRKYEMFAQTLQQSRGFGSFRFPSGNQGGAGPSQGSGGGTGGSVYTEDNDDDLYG
Sequence of Transitional endoplasmic reticulum ATPase (Homo sapiens, UniProt P55072) (P55072 whole entry): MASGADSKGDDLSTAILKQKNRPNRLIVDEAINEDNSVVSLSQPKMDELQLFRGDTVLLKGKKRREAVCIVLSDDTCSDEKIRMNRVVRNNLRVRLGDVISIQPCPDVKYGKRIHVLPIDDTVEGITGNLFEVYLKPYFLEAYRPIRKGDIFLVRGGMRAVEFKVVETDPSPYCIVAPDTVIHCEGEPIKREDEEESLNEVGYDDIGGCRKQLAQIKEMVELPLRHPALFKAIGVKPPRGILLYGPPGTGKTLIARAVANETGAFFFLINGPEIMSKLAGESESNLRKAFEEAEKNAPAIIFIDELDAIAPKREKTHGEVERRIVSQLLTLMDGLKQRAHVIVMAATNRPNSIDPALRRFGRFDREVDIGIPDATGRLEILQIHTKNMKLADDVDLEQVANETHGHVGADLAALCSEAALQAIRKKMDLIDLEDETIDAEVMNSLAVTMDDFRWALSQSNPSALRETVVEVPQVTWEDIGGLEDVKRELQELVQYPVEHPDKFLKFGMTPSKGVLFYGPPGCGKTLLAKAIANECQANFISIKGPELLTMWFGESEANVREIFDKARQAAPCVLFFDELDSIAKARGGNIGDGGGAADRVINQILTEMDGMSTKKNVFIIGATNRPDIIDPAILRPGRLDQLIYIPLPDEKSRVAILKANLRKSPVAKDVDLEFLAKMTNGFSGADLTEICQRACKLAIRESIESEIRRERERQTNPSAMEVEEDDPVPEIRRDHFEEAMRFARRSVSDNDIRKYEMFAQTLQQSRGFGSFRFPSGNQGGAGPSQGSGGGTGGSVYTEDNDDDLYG
Sequence of Neuropeptide Y receptor type 2 (P49146 whole entry): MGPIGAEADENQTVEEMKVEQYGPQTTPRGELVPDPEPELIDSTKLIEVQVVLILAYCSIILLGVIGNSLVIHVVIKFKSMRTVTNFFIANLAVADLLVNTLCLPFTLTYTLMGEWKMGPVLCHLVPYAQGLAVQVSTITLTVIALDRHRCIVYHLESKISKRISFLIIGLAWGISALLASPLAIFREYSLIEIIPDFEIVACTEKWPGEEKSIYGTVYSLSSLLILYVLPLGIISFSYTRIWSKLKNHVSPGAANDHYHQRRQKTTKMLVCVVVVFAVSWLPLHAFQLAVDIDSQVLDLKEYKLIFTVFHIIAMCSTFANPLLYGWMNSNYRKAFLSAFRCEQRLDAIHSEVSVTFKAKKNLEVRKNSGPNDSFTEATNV
Sequence of Neuropeptide Y receptor type 1 (P25929 whole entry): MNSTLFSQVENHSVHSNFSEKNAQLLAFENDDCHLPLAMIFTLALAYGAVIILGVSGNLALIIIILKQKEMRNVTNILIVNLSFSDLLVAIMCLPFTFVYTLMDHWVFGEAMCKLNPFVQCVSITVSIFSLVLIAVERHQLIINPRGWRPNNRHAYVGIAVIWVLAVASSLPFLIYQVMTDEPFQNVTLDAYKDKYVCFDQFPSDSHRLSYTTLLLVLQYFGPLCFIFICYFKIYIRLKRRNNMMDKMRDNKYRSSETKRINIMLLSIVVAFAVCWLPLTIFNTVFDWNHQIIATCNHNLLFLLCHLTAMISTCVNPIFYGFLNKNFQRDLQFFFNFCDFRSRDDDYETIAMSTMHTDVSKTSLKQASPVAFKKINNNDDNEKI
Sequence of Tumor necrosis factor (P01375 whole entry): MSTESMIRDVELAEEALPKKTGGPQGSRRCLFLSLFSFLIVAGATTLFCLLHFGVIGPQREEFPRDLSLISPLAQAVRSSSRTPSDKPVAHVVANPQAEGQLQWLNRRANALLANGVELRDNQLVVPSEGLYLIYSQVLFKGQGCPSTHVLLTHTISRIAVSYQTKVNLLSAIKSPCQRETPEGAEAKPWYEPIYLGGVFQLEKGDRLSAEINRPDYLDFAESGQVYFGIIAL

**Q.** What does the source list for CCCCCCCn1c(=O)c(C(=O)Nc2cnccn2)c(O)c2ccccc21?
**A.** EC50 [1]: 6.65 µM (active); IC50 [2]: > 20 µM (inactive); IC50 [3]: > 20 µM (inactive); IC50 [4]: 8.05 µM (active); IC50 [5]: > 20 µM (inactive); EC50 [6]: 6.35 µM (active); EC50 [7]: 2.88 µM (active); IC50 [8]: 3.18 µM (active); IC50 [9]: 6.85 µM (active); IC50 [10]: 5.6 µM (active); IC50 [11]: > 20 µM (inactive); EC50 [12]: 7.83 µM (active)

**Q.** Which EC50 [13] does the source give for Cc1ccccc1OCC(O)CN1CCN(CC(O)COc2ccccc2C)CC1 (stereo unspecified) here?
**A.** Its EC50 is > 35.4 µM (not active).

**Q.** And the EC50 [14]?
**A.** The EC50 was > 35.4 µM (not active).

**Q.** What about the IC50 [15] of the same molecule?
**A.** Its IC50 is 12 µM (not active).

**Q.** For CN(C)[C@@H]1C(O)=C(C(N)=O)C(=O)[C@@]2(O)C(O)=C3C(=O)c4c(O)cccc4[C@@](C)(O)[C@H]3[C@H](O)[C@@H]12 [OXYTETRACYCLINE], which IC50 [16] is on record?
**A.** The IC50 was > 50 µM (not active).

**Q.** What about the IC50 [17] of the same molecule?
**A.** The IC50 was > 50 µM (not active).

**Q.** And the IC50 [18]?
**A.** Its IC50 is 50 µM (inactive).

**Q.** For N=c1c(S(=O)(=O)c2ccc(Cl)cc2)cc2c(=O)n3ccccc3nc2n1Cc1ccco1, which EC50 [19] is on record?
**A.** Its EC50 is > 260 µM (inactive).

**Q.** What about the IC50 [20] of the same molecule?
**A.** Its IC50 is 4.47 µM (active).

**Q.** What about the IC50 [21] of the same molecule?
**A.** The IC50 was 20.9 µM (active).

**Q.** Which EC50 [22] does the source give for Oc1nc2c(s1)C=Nc1ccccc1N2 here?
**A.** Its EC50 is 1.17 µM (active).

**Q.** What about the EC50 [1] of the same molecule?
**A.** The EC50 was > 150 µM (not active).

**Q.** And the AC50 [23]?
**A.** The AC50 was 71.5 µM (active).

**Q.** And the EC50 [7]?
**A.** The EC50 was > 150 µM (not active).

**Q.** What about the EC50 [24] of the same molecule?
**A.** Its EC50 is < 0.3 µM (active).
